Source: patent US20230085307A1, “PYRIDAZINONE COMPOUND AND HERBICIDE” (NISSAN CHEMICAL CORPORATION, priority 2019, published 2023)

Legend:
[1] = test system: Japanese bulrush; assay: Test Example 1: herbicidal activity, application before weed generation under submerged conditions (Table 16, symbol B); type: in vivo, Japanese bulrush (Schoenoplectus juncoides); conditions: 320 g/ha applied herbicide
Method in brief: (§1)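 Emulsion formulation, water-diluted to set dose, was put onto the flooded surface (4 cm depth, alluvial soil) the same day weeds were sown and 2.5-leaf rice transplanted. After 3 weeks at 25-30 °C under glass, each species was rated 0 (≤5% kill) to 5 (≥90% kill).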

[2] = test system: oval-leafed pondweed; assay: Test Example 1: herbicidal activity, application before weed generation under submerged conditions (Table 16, symbol C); type: in vivo, oval-leafed pondweed (Monochoria vaginalis); conditions: 320 g/ha applied herbicide
Method in brief: as §1

[3] = test system: late watergrass; assay: Test Example 2: herbicidal activity, application during weed generation under submerged conditions (Table 17, symbol A); type: in vivo, late watergrass (Echinochloa oryzicola); conditions: AAH 320 g/ha; application during weed generation, submerged conditions
Method in brief: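 3-wk visual-criteria score after one water-surface dose. Emulsion formulation, water-diluted to set rate; applied at 1–2 leaf stage; alluvial soil, 4 cm standing water; seeds co-sown; greenhouse 25–30° C.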

[4] = test system: barnyard grass; assay: Test Example 3: herbicidal effect by foliage application, Wagner pot (Table 18, symbol H); type: in vivo, barnyard grass (Echinochloa crus-galli); conditions: for herbicidal effect on H: barnyard grass: amount of applied herbicide 320 g/ha; for herbicidal effect on H (barnyard grass), rating 0-5: 320 g/ha
Method in brief: (§2)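 Plants were sown in alluvial soil held under 0.1–0.5 cm standing water and grown 14 days in a greenhouse at 25–30 °C. An emulsifiable formulation, water-diluted to the set dose, was then sprayed onto the foliage, and effects were scored three weeks later using previously defined criteria.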

[5] = test system: Chinese sprangletop; assay: Test Example 3: herbicidal effect by foliage application, Wagner pot (Table 18, symbol D); type: in vivo, chinese sprangletop (Leptochloa chinensis); conditions: for herbicidal effect on D: Chinese sprangletop: amount of applied herbicide 320 g/ha; for herbicidal effect on D (Chinese sprangletop), rating 0-5: 320 g/ha
Method in brief: as §2

[6] = test system: barnyard grass; assay: Test Example 4: herbicidal effect by soil treatment (Table 19, symbol H); type: in vivo, barnyard grass (Echinochloa crus-galli)
Method in brief: (§3)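 Step 1: sow seeds in sterilized diluvial soil, cover ~1.5 cm. Step 2: spray diluted emulsion onto soil surface at predetermined rate. Step 3: greenhouse, 25–30° C, three weeks. Step 4: grade effect on each plant by earlier criteria.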

[7] = test system: windgrass; assay: Test Example 4: herbicidal effect by soil treatment (Table 19, symbol L); type: in vivo, windgrass (Apera spica-venti)
Method in brief: as §3

[8] = test system: velvetleaf; assay: Test Example 4: herbicidal effect by soil treatment (Table 19, symbol M); type: in vivo, velvetleaf (Abutilon theophrasti)
Method in brief: as §3

[9] = test system: lambsquarters; assay: Test Example 4: herbicidal effect by soil treatment (Table 19, symbol O); type: in vivo, lambsquarters (Chenopodium album)
Method in brief: as §3

[10] = test system: persian speedwell; assay: Test Example 4: herbicidal effect by soil treatment (Table 19, symbol R); type: in vivo, Persian speedwell (Veronica persica)
Method in brief: as §3

[11] = test system: barnyard grass; assay: Test Example 5: herbicidal effect by foliage application, plastic box (Table 20, symbol H); type: in vivo, barnyard grass (Echinochloa crus-galli); conditions: foliage application
Method in brief: (§4)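 Foliar spray test: emulsion formulation diluted in water to a set application rate, sprayed onto 14-day-old plants raised in diluvial soil at 25° C to 30° C under glass. Both herbicidal effect and crop effect rated visually three weeks later.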

[12] = test system: blackgrass; assay: Test Example 5: herbicidal effect by foliage application, plastic box (Table 20, symbol J); type: in vivo, blackgrass (Alopecurus myosuroides); conditions: foliage application
Method in brief: as §4

[13] = test system: Italian ryegrass; assay: Test Example 5: herbicidal effect by foliage application, plastic box (Table 20, symbol K); type: in vivo, Italian ryegrass (Lolium multiflorum); conditions: foliage application
Method in brief: as §4

[14] = test system: velvetleaf; assay: Test Example 5: herbicidal effect by foliage application, plastic box (Table 20, symbol M); type: in vivo, velvetleaf (Abutilon theophrasti); conditions: foliage application
Method in brief: as §4

[15] = test system: redroot pigweed; assay: Test Example 5: herbicidal effect by foliage application, plastic box (Table 20, symbol N); type: in vivo, redroot pigweed (Amaranthus retroflexus); conditions: foliage application
Method in brief: as §4

[16] = test system: lambsquarters; assay: Test Example 5: herbicidal effect by foliage application, plastic box (Table 20, symbol O); type: in vivo, lambsquarters (Chenopodium album); conditions: foliage application
Method in brief: as §4

[17] = amount of applied herbicide 320 g/ha
[18] = 320 g/ha, evaluated three weeks after application
[19] = 320 g/ha, three weeks after application
[20] = AAH 320 g/ha, evaluated three weeks after application

SMILES | Herbicidal effect on B: Japanese bulrush (grade 0-5) [1] | Herbicidal effect on C: oval-leafed pondweed (grade 0-5) [2] | herbicidal effect rating, A: late watergrass [3] | herbicidal effect on H: barnyard grass [4] | herbicidal effect on D: Chinese sprangletop [5] | herbicidal effect on H: barnyard grass [6, 17] | herbicidal effect on L: windgrass [7, 17] | herbicidal effect on M: velvetleaf [8, 17] | herbicidal effect on O: lambsquarters [9, 17] | herbicidal effect on R: persian speedwell [10, 17] | herbicidal effect on H (barnyard grass), rating 0-5 [4] | herbicidal effect on D (Chinese sprangletop), rating 0-5 [5] | herbicidal effect rating, H: barnyard grass ([6]; 320 g/ha) | herbicidal effect rating, L: windgrass ([7]; 320 g/ha) | herbicidal effect rating, M: velvetleaf ([8]; 320 g/ha) | herbicidal effect rating, O: lambsquarters ([9]; 320 g/ha) | herbicidal effect rating, R: persian speedwell ([10]; 320 g/ha) | herbicidal effect on H: barnyard grass [11, 18] | herbicidal effect on J: blackgrass [12, 18] | herbicidal effect on K: Italian ryegrass [13, 18] | further results
CCCSc1ccc(-c2sc3ccc(F)cc3c2-c2c(OC(=O)CCC)c(C)nn(C)c2=O)cc1 [2-249] | 2 (Herbicidal rate of 20% or more and less than 40%) | 0 (Herbicidal rate of 5% or less (almost no effect)) | 4 (Herbicidal rate of 70% or more and less than 90%) | 5 (Herbicidal rate of 90% or more (almost completely withered)) | 3 (Herbicidal rate of 40% or more and less than 70%) | 4 (Herbicidal rate of 70% or more and less than 90%) | 0 (Herbicidal rate of 5% or less (almost no effect)) | 1 (Herbicidal rate of 5% or more and less than 20%) | 3 (Herbicidal rate of 40% or more and less than 70%) | 4 (Herbicidal rate of 70% or more and less than 90%) | – | – | – | – | – | – | – | – | – | – | herbicidal effect on H: barnyard grass (criteria 0-5) [11, 18]: 5 (Herbicidal rate of 90% or more (almost completely withered)); herbicidal effect on J: blackgrass (criteria 0-5) [12, 18]: 4 (Herbicidal rate of 70% or more and less than 90%); herbicidal effect on K: Italian ryegrass (criteria 0-5) [13, 18]: 3 (Herbicidal rate of 40% or more and less than 70%); herbicidal effect on M: velvetleaf (criteria 0-5) [14, 18]: 5 (Herbicidal rate of 90% or more (almost completely withered)); herbicidal effect on N: redroot pigweed (criteria 0-5) [15, 18]: 5 (Herbicidal rate of 90% or more (almost completely withered)); herbicidal effect on O: lambsquarters (criteria 0-5) [16, 18]: 4 (Herbicidal rate of 70% or more and less than 90%)
Cc1nn(C)c(=O)c(-c2c(-c3ccc(OCC4CC4)cc3)sc3ccc(F)cc23)c1O [2-060] | 5 (Herbicidal rate of 90% or more (almost completely withered)) | 4 (Herbicidal rate of 70% or more and less than 90%) | 0 (Herbicidal rate of 5% or less (almost no effect)) | – | – | – | – | – | – | – | 3 (Herbicidal rate of 40% or more and less than 70%) | 3 (Herbicidal rate of 40% or more and less than 70%) | 3 (Herbicidal rate of 40% or more and less than 70%) | 0 (Herbicidal rate of 5% or less (almost no effect)) | 0 (Herbicidal rate of 5% or less (almost no effect)) | 4 (Herbicidal rate of 70% or more and less than 90%) | 5 (Herbicidal rate of 90% or more (almost completely withered)) | 3 (Herbicidal rate of 40% or more and less than 70%) | 3 (Herbicidal rate of 40% or more and less than 70%) | 0 (Herbicidal rate of 5% or less (almost no effect)) | herbicidal effect on M: velvetleaf [14, 18]: 4 (Herbicidal rate of 70% or more and less than 90%); herbicidal effect on N: redroot pigweed [15, 18]: 5 (Herbicidal rate of 90% or more (almost completely withered)); herbicidal effect on O: lambsquarters [16, 18]: 4 (Herbicidal rate of 70% or more and less than 90%)
Cc1nn(C)c(=O)c(-c2c(-c3ccc4c(c3)OCO4)sc3ccccc23)c1O [1-087] | 1 (Herbicidal rate of 5% or more and less than 20%) | 0 (Herbicidal rate of 5% or less (almost no effect)) | 2 (Herbicidal rate of 20% or more and less than 40%) | – | – | – | – | – | – | – | 4 (Herbicidal rate of 70% or more and less than 90%) | 3 (Herbicidal rate of 40% or more and less than 70%) | – | – | – | – | – | – | – | – | herbicidal effect rating, H: barnyard grass [6, 17]: 4 (Herbicidal rate of 70% or more and less than 90%); herbicidal effect rating, L: windgrass [7, 17]: 0 (Herbicidal rate of 5% or less (almost no effect)); herbicidal effect rating, M: velvetleaf [8, 17]: 0 (Herbicidal rate of 5% or less (almost no effect)); herbicidal effect rating, O: lambsquarters [9, 17]: 5 (Herbicidal rate of 90% or more (almost completely withered)); herbicidal effect rating, R: persian speedwell [10, 17]: 5 (Herbicidal rate of 90% or more (almost completely withered)); herbicidal effect grade, H: barnyard grass [11, 19]: 4 (Herbicidal rate of 70% or more and less than 90%); herbicidal effect grade, J: blackgrass [12, 19]: 3 (Herbicidal rate of 40% or more and less than 70%); herbicidal effect grade, K: Italian ryegrass [13, 19]: 3 (Herbicidal rate of 40% or more and less than 70%); herbicidal effect grade, M: velvetleaf [14, 19]: 4 (Herbicidal rate of 70% or more and less than 90%); herbicidal effect grade, N: redroot pigweed [15, 19]: 5 (Herbicidal rate of 90% or more (almost completely withered)); herbicidal effect grade, O: lambsquarters [16, 19]: 3 (Herbicidal rate of 40% or more and less than 70%)
CCCC(=O)Oc1c(C)nn(C)c(=O)c1-c1c(-c2ccc(OC)c(OC)c2)sc2ccc(F)cc12 [2-089] | 4 (Herbicidal rate of 70% or more and less than 90%) | 4 (Herbicidal rate of 70% or more and less than 90%) | 4 (Herbicidal rate of 70% or more and less than 90%) | – | – | – | – | – | – | – | 4 (Herbicidal rate of 70% or more and less than 90%) | 3 (Herbicidal rate of 40% or more and less than 70%) | 4 (Herbicidal rate of 70% or more and less than 90%) | 0 (Herbicidal rate of 5% or less (almost no effect)) | 4 (Herbicidal rate of 70% or more and less than 90%) | 5 (Herbicidal rate of 90% or more (almost completely withered)) | 5 (Herbicidal rate of 90% or more (almost completely withered)) | 4 (Herbicidal rate of 70% or more and less than 90%) | 0 (Herbicidal rate of 5% or less (almost no effect)) | 4 (Herbicidal rate of 70% or more and less than 90%) | herbicidal effect on M: velvetleaf [14, 18]: 5 (Herbicidal rate of 90% or more (almost completely withered)); herbicidal effect on N: redroot pigweed [15, 18]: 4 (Herbicidal rate of 70% or more and less than 90%); herbicidal effect on O: lambsquarters [16, 18]: 4 (Herbicidal rate of 70% or more and less than 90%)
Cc1nn(C)c(=O)c(-c2c(-c3ccc(OC(F)F)cc3)sc3ccc(F)cc23)c1OC(=O)C1CCCC1 [2-280] | 3 (Herbicidal rate of 40% or more and less than 70%) | 0 (Herbicidal rate of 5% or less (almost no effect)) | 4 (Herbicidal rate of 70% or more and less than 90%) | 5 (Herbicidal rate of 90% or more (almost completely withered)) | 3 (Herbicidal rate of 40% or more and less than 70%) | 3 (Herbicidal rate of 40% or more and less than 70%) | 0 (Herbicidal rate of 5% or less (almost no effect)) | 3 (Herbicidal rate of 40% or more and less than 70%) | 5 (Herbicidal rate of 90% or more (almost completely withered)) | 4 (Herbicidal rate of 70% or more and less than 90%) | – | – | – | – | – | – | – | – | – | – | H: barnyard grass, herbicidal effect (criteria 0-5) [11, 20]: 5 (Herbicidal rate of 90% or more (almost completely withered)); J: blackgrass, herbicidal effect (criteria 0-5) [12, 20]: 5 (Herbicidal rate of 90% or more (almost completely withered)); K: Italian ryegrass, herbicidal effect (criteria 0-5) [13, 20]: 5 (Herbicidal rate of 90% or more (almost completely withered)); M: velvetleaf, herbicidal effect (criteria 0-5) [14, 20]: 5 (Herbicidal rate of 90% or more (almost completely withered)); N: redroot pigweed, herbicidal effect (criteria 0-5) [15, 20]: 5 (Herbicidal rate of 90% or more (almost completely withered)); O: lambsquarters, herbicidal effect (criteria 0-5) [16, 20]: 5 (Herbicidal rate of 90% or more (almost completely withered))
